Assay results published in patent EP1130064A1, “DYE COMPOSITION, INK COMPOSITION, AND INK-JET RECORDING METHOD” (Nippon Kayaku Kabushiki Kaisha, priority 1998, dated 2000).

Assays:
[1] = Water fastness of recorded image (stirred in water); assay type: physicochemical; conditions: stirred in water 2 min, dried; for Water fastness Judgment: JIS fading gray scale; for Water fastness (ΔE): color difference before/after
Description: (§1) By using an ink-jet printer (Trade name: PICTY80L, made by NEC KK), ink-jet printing was done on five types of recording materials: a plain paper(Printer Paper A4, TLB5A4S, made by Canon KK), a special paper A(Color BJ Paper LC101, made by Canon KK), a special paper B(Color Image Jet Coat Paper STX73A4, made by Sharp KK), a glossy film A(Special Glossy Film MJA4SP6, made by Seiko-Epson KK), and a glossy film B(Color BJ Photo Sheet Film CA-101, made by Canon KK). The test results on hue, vividness, light fastness, and water fastness in recorded images pictured by the water-based yellow ink composition ( X=H, M=Na in Formula (1)) of the present invention are shown in Table 2.
(§2) An ink composition for the comparative example was prepared same as in the above (A), but the ink composition contained C.I. Acid Yellow 17, an azo dye generally applied for an ink-jet yellow dye in place of the dye composition in Table 1 and was adjusted to coincide in optical density with the yellow ink of the present invention. The test results on hue, vividness, light fastness, and water fastness in recorded images pictured by the ink composition for the comparative example also are shown in Table 2. Hue and vividness in the color sample of JNC's JAPAN COLOR are shown in Table 2 (The paper of the color sample Japan Color Standard Paper a paper). (C) Assessment of recorded image
A recorded material was set in a beaker filled with water, stirred for 2 min and dried. The color fading of the recorded image after treatment was determined based on the JIS fading gray scale. Color difference (ΔE) between before and after the treatment also was determined by using the above colorimetry.

[2] = Light fastness of recorded image (carbon arc fade meter); assay type: physicochemical; conditions: carbon arc 40 hours; for Light fastness Judgment: blue scale grade JIS L-0841; for Light fastness (ΔE): color difference before/after
Description: as §1, §2
A carbon arc fade meter ( by Suga Testing Machine Co.) was used to irradiate carbon arc on the recorded image for 40 hours. Grade was determined based on blue scale grade as prescribed in JIS L-0841. Color difference (ΔE) between before and after the irradiation also was determined by using the above colorimetry.

- Water fastness Judgment ([1]; Glossy film A): Grade4-5
- Water fastness (ΔE) ([1]; Glossy film A): 6.2
- Water fastness Judgment ([1]; Glossy film B): Grade4-5
- Water fastness (ΔE) ([1]; Glossy film B): 4.7
- Water fastness Judgment ([1]; Plain paper): Grade 1
- Water fastness (ΔE) ([1]; Plain paper): 76.8
- Water fastness Judgment ([1]; Special paper A): Grade 3
- Water fastness (ΔE) ([1]; Special paper A): 15.7
- Water fastness Judgment ([1]; Special paper B): Grade 2
- Water fastness (ΔE) ([1]; Special paper B): 39.6
- Light fastness Judgment ([2]; Glossy film A): Grade3-4
- Light fastness (ΔE) ([2]; Glossy film A): 17.6
- Light fastness Judgment ([2]; Glossy film B): Grade 2
- Light fastness (ΔE) ([2]; Glossy film B): 64.6
- Light fastness Judgment ([2]; Plain paper): Grade4-5
- Light fastness (ΔE) ([2]; Plain paper): 4.5
- Light fastness Judgment ([2]; Special paper A): Grade 3
- Light fastness (ΔE) ([2]; Special paper A): 33.5
- Light fastness Judgment ([2]; Special paper B): Grade 3
- Light fastness (ΔE) ([2]; Special paper B): 29.4
Substance: C.I. Acid Yellow 17 [Comparative example 1]
